# Assay results published in patent US9872858B2, “Treatment of degenerations and light-induced damage to the retina” (BIOCODEX, priority 2014, dated 2018).
# Where two headings read alike, the source gives them in different places.
# Columns and labels:
# [1] = tested on: patients suffering from neovascular (exudative) AMD; conditions: cited from earlier work
# [2] = tested on: blue light-induced retinal degenerations or damages in rats; assay: Scotopic electroretinogram (amplitude of wave a) after blue light-induced retinal degeneration; type: in vivo, Sprague-Dawley albino male rats
# Description: This animal model is particularly representative, in addition to light-induced retinal damage, of age-related macular degeneration (AMD) and retinitis pigmentosa (see e.g Feng et al. (2012) International Journal of Ophthalmology 5:151-157).
# 72 Sprague-Dawley albino male rats obtained from Janvier were used for the study. When received, the rats were approximately 7 weeks old and weighed 180-200 g,
# (§1) Induction was performed by exposure during 6 hours to a blue fluorescent light of 400 nm-540 nm wavelength in individual cages. The rats were kept in the dark for 36 hours prior to the induction and 24 hours after the induction, before returning to normal lighting conditions.
# A scotopic electroretinogram (ERG) was performed by using the electrophysiological RETI-animal® (Roland Consult) system before the first administration (base) then on days 7 and 14 on both eyes of animals accustomed to the darkness. The animals were anesthetized with an intramuscular injection of a mixture of ketamine/xylazine. 15 minutes before the measurement, 1 drop of Mydriatictum® (0.5% tropicamide) was instilled to induce dilatation of the pupil. The amplitudes of wave a and wave b were measured for each eye and expressed as a percentage of the base amplitudes.
# The ERG parameters are: • Gansfeld Q450C • Color: maximum white • Maximum intensity: 2.6 cd.s/m^2 (0 dB); duration: 0.24 ms; number of flashes: 1 • Filter: 50 Hz • Impedance threshold: 90 kΩ
# A two-factor ANOVA test was applied to the average amplitudes of the wave a of both eyes for each measurement point. The effect of the products was determined using the Turkey's multiple comparison test; each group was compared to other groups. Differences were considered significant for p values less than 0.05.
# Electroretinograms (ERG) allow to measure the amplitude of wave a, which results from the photo-activated hyperpolarization of photoreceptors. Thus, a reduction of the amplitude of wave a is an indicator of a retinal damage or degeneration associated with exposure to blue light.
# [3] = tested on: blue light-induced retinal degenerations or damages in rats; assay: Thickness of the outer nuclear layer (histology, AUC) after blue light-induced retinal degeneration; type: in vivo, Sprague-Dawley albino male rats
# Description: The inventors have studied the protective effect of etifoxine in respect of the blue light-induced retinal degenerations or damages in rats. This animal model is particularly representative, in addition to light-induced retinal damage, of age-related macular degeneration (AMD) and retinitis pigmentosa (see e.g Feng et al. (2012) International Journal of Ophthalmology 5:151-157).
# as §1
# After ERG (day 14), the animals were euthanized with an overdose of pentobarbital, according to European recommendations, both eyes were enucleated, fixed with Bouin Hollande solution and then included in paraffin. Sections of 5 to 7 μm of thickness were made along the vertical meridian then stained using Masson's trichrome. The vertical meridian includes the optic nerve. […] The area under the curve (AUC) was then calculated for each retina.
# A one-factor ANOVA test was applied to the average AUCs of the thickness of the outer nuclear layer. The effect of the products was determined using a Turkey's multiple comparison test; each treated group was compared to vehicle group. Differences were considered significant for p values less than 0.05.
# To determine if the treatment allows to preserve the structure of photoreceptors, the thickness of the outer nuclear layer was evaluated 14 days other exposure to blue light. The area under the curve (AUC) of the thickness of the outer nuclear layer was calculated for each eye and both AUCs were averaged for each rat.
# [4] = Animals behavior and body weight; type: in vivo, Sprague-Dawley albino male rats; conditions: etifoxine 12.5-50 mg/kg i.p. once a day D-7 to D0
# Source text: The rats were kept under observation for 3 weeks after their arrival for acclimatization. Meanwhile the animals were observed daily for verifying the absence of a disease.
# II.1. Animals Behavior and Body Weight
# [5] = tested on: light-induced degeneration of the retina in rats; conditions: intraperitoneal injection (Ranchon et al. 2001); cited from earlier work
compound,measurement,setting,value
ranibizumab: a Fab fragment of an anti-VEGF-A monoclonal antibody,Visual acuity improvement,[1]; 0.3 mg monthly intravitreal injections,+8.1 letters
same,Visual acuity improvement,[1]; 0.5 mg monthly intravitreal injections,+10.7 letters
"CCNC1=Nc2ccc(Cl)cc2C(C)(c2ccccc2)O1.Cl (centres unmarked) [EFX, 6-chloro-2-ethylamino-4-methyl-4-phenyl-4H-[3,1]benzoxazine hydrochloride]",Protection of amplitude of wave a compared to the vehicle group,"[2]; 12.5, 25 and 50 mg/kg, day 7 p<0.0001 all doses, day 14 p=0,016 for 12.5 mg/kg, p<0.0001 for 25 and 50 mg/kg",significant dose-dependent protection
same,"Amplitude of wave a (mean ± standard deviation), Day 7","[2]; EFX 12.5 mg/kg i.p. once a day D-7 to D0, 7 days after induction",136 ± 89 μV
same,"Amplitude of wave a (mean ± standard deviation), Day 14","[2]; EFX 12.5 mg/kg i.p. once a day D-7 to D0, 14 days after induction",134 ± 135 μV
same,"Amplitude of wave a (mean ± standard deviation), Day 7","[2]; EFX 25 mg/kg i.p. once a day D-7 to D0, 7 days after induction",210 ± 116 μV
same,"Amplitude of wave a (mean ± standard deviation), Day 7","[2]; EFX 50 mg/kg i.p. once a day D-7 to D0, 7 days after induction",260 ± 87 μV
same,"Thickness of the outer nuclear layer (AUC, mean of both eyes ± standard deviation)","[3]; EFX 12.5 mg/kg i.p. once a day D-7 to D0, 14 days after induction, p = 0.04 vs vehicle group",170 ± 72 (p = 0.04 comparing to vehicle group) μm × mm
same,"Thickness of the outer nuclear layer (AUC, mean of both eyes ± standard deviation)","[3]; EFX 25 mg/kg i.p. once a day D-7 to D0, 14 days after induction, p = 0.0002 vs vehicle group",200 ± 73 (p = 0.0002 comparing to vehicle group) μm × mm
same,"Thickness of the outer nuclear layer (AUC, mean of both eyes ± standard deviation)","[3]; EFX 50 mg/kg i.p. once a day D-7 to D0, 14 days after induction, p = 0.035 vs vehicle group",172 ± 61 (p = 0.035 comparing to vehicle group) μm × mm
same,"Protection of the outer nuclear layer from damages or degenerations induced by blue light, compared to the vehicle","[3]; regardless of the dose (12.5, 25, 50 mg/kg), 14 days after induction",protects significantly
same,Clinical signs after administration,[4],No unexpected clinical signs
"CC(C)(C)[N+]([O-])=Cc1ccccc1 [PBN, Phenyl-N-tert-butylnitrone]","Amplitude of wave a (mean ± standard deviation), Day 7","[2]; PBN 50 mg/kg i.p. at D0, 0.5 h before, 2 h and 4 h during and just after induction, 7 days after induction",334 ± 137 μV
same,"Average relative amplitude of wave a, Day 7","[2]; PBN 50 mg/kg i.p. at D0 around induction, 7 days after induction, percentage of base amplitude",71 ± 29%
same,"Amplitude of wave a (mean ± standard deviation), Day 14","[2]; PBN 50 mg/kg i.p. at D0 around induction, 14 days after induction",301 ± 187 μV
same,"Average relative amplitude of wave a, Day 14","[2]; PBN 50 mg/kg i.p. at D0 around induction, 14 days after induction, percentage of base amplitude",62 ± 38%
same,Amplitudes of wave a compared to the NaCl 0.9% group,"[2]; PBN 50 mg/kg, days 7 and 14, p<0.0001",significantly (p<0.0001) higher
same,"Thickness of the outer nuclear layer (AUC, mean of both eyes ± standard deviation)","[3]; PBN 50 mg/kg i.p. at D0 around induction, 14 days after induction, p < 0.0001 vs NaCl 0.9% group",247 ± 44 (p < 0.0001 comparing to NaCl 0.9% group) μm × mm
same,Protection of the outer nuclear layer from damages or degenerations induced by blue light,"[3]; PBN 50 mg/kg, positive control, in contrast to 0.9% NaCl",protects the outer nuclear layer
same,Action in light-induced degeneration of the retina,[5],protective action
